Source: the NIST ThermoML archive (doi:10.1016/j.jct.2013.03.026)
Numbers after ± are expanded uncertainties.

Columns and labels:
[1] = DTA
[2] = Molar enthalpy of transition or fusion; settings: DSC
[3] = molar heat capacity at constant pressure; settings: 298.15 K, 101.33 kPa, Drop calorimetry

Row | Structure (SMILES) | Triple point temperature ([1]; Crystal) | Molar enthalpy of transition or fusion ([2]; Crystal) | molar heat capacity at constant pressure ([3]; Crystal) | further results
1 | c1ccc(-c2cccc(-c3cccc(-c4cccc(-c5ccccc5)c4)c3)c2)cc1 [1,1':3',1'':3'',1'':3'',1''''-quinquephenyl] | 387.1 ± 0.4 K | 31.2 ± 0.8 kJ/mol | 443.7 ± 10 J/K/mol | 
2 | c1ccc(-c2ccc(-c3ccc(-c4ccccc4)cc3)cc2)cc1 [1,1':4',1'':4'',1'''-quaterphenyl] | 594.4 ± 0.6 K | 53.4 ± 1.5 kJ/mol |  | 
3 | c1ccc(-c2ccc(-c3ccc(-c4ccc(-c5ccccc5)cc4)cc3)cc2)cc1 [1,1':4',1'':4'',1''':4''',1''''-quinquephenyl] |  |  |  | Triple point temperature ([1]; Crystal 1): 663.4 ± 3.9 K; Triple point temperature ([1]; Crystal 2): 642.2 ± 3.9 K; Triple point temperature ([1]; Nematic liquid crystal): 696 ± 3.9 K; Molar enthalpy of transition or fusion ([2]; Crystal 1): 48.8 ± 4 kJ/mol; Molar enthalpy of transition or fusion ([2]; Crystal 2): 0.5 ± 0.3 kJ/mol; Molar enthalpy of transition or fusion ([2]; Nematic liquid crystal): 1.6 ± 0.4 kJ/mol; molar heat capacity at constant pressure ([3]; Crystal 2): 455.5 ± 11 J/K/mol
4 | c1ccc(-c2cccc(-c3ccccc3)c2)cc1 [m-terphenyl] | 361.8 ± 0.7 K | 25.5 ± 0.7 kJ/mol |  | 
5 | c1ccc(-c2cccc(-c3cccc(-c4ccccc4)c3)c2)cc1 [metaquaterphenyl] | 360 ± 0.4 K | 27.7 ± 0.8 kJ/mol | 359.5 ± 8.4 J/K/mol | 
6 | c1ccc(-c2ccccc2-c2ccccc2-c2ccccc2)cc1 [o-quaterphenyl] | 390.6 ± 0.5 K | 27.2 ± 0.7 kJ/mol | 359.1 ± 8.3 J/K/mol | 
7 | c1ccc(-c2ccccc2-c2ccccc2-c2ccccc2-c2ccccc2)cc1 [o-quinquephenyl] | 428.8 ± 0.5 K | 32.4 ± 0.8 kJ/mol | 444.3 ± 10 J/K/mol | 
8 | c1ccc(-c2ccccc2-c2ccccc2)cc1 [o-terphenyl] | 329.4 ± 0.4 K | 17 ± 0.5 kJ/mol |  | 
9 | c1ccc(-c2ccc(-c3ccccc3)cc2)cc1 [p-terphenyl] | 490.9 ± 0.6 K | 32.9 ± 0.9 kJ/mol |  | 
